From patent US20240365781A1, “SYNERGISTICALLY EFFECTIVE HERBICIDE COMPOSITION COMPRISING PELARGONIC ACID AND FLAZASULFURON” (Belchim Crop Protection NV, priority 2017, published 2024)

Experiments:
Format in all cases: in vivo
Chenopodium album = experiment: post-emergence test, field trial (Examples 1-5); details: FT
Text: (§1) The expected activity of a given combination of two or three herbicides can be calculated as follows according to a calculation method by Colby (cf. COLBY, S. R.: “Calculating synergistic and antagonistic responses of herbicide combinations”, • Weeds 15, pages 20-22, 1967): • If X=% damage by herbicide (A) at an application rate of m g/ha, • Y=% damage by herbicide (B) at an application rate of n g/ha, • E=the expected damage by herbicides (A) and (B) at application rates of m and n […] and, • then for a combination:
(§2) Individual compositions comprising pelargonic acid or flazasulfuron are compared with a herbicide composition according to the invention comprising pelargonic acid and flazasulfuron.
(§3) Herbicidal activity was determined by performing a post-emergence test. […] The corresponding mixture was in the form of a spray liquor. Besides, spray liquors of individual compositions comprising pelargonic acid or flazasulfuron were used.
(§4) Tests were performed on test fields (field trials) or in pots (pot trials).

Lolium sp. = experiment: post-emergence test, field trial (Examples 1-5); details: 7 d, FT; pelargonic acid 5440 g/ha, flazasulfuron 50 g/ha; 8 L/ha
Text: as §1, §2, §3, §4

Digitaria sang = experiment: post-emergence test, field trial (Examples 1-5); details: FT, pelargonic acid 5440 g/ha, flazasulfuron 50 g/ha, 8 L/ha
Text: as §1, §2, §3, §4

Veronica persica = experiment: post-emergence test, field trial (Examples 1-5); details: FT, pelargonic acid 5440 g/ha, flazasulfuron 50 g/ha, 8 L/ha
Text: as §1, §2, §3, §4

Sonchus oleraceus L. = experiment: post-emergence test, field trial (Examples 1-5); details: FT, pelargonic acid 5440 g/ha, flazasulfuron 50 g/ha, 8 L/ha
Text: as §1, §2, §3, §4

Echinochloa crusgalli = experiment: post-emergence test, field trial (Examples 1-5); details: FT
Text: as §1, §2, §3, §4

Festuca ovina = experiment: post-emergence test, field trial (Examples 1-5); details: FT
Text: as §1, §2, §3, §4

Anagallis arvensis = experiment: post-emergence test, field trial (Examples 1-5); details: 3 d, FT; pelargonic acid 5440 g/ha, flazasulfuron 50 g/ha; 8 L/ha
Text: as §1, §2, §3, §4

Plantago major = experiment: post-emergence test, field trial (Examples 1-5); details: FT
Text: as §1, §2, §3, §4

Convolvulus arvensis L. = experiment: post-emergence test, field trial (Examples 1-5); details: 3 d, FT; pelargonic acid 5440 g/ha, flazasulfuron 50 g/ha; 8 L/ha
Text: as §1, §2, §3, §4

Sonchus oleracea = experiment: post-emergence field trial under rows of apple trees, 150-200 L water/ha (Examples 10-12); details: 20 g of active compound/ha
Experimental: (§5) Herbicidal activity was determined by performing a post-emergence test. […] The corresponding mixture was in the form of a spray solution. Besides, spray solutions of individual compositions comprising pelargonic acid or flazasulfuron were used.
(§6) The spray solution was applied on plants of unwanted vegetation present on fields where perennial crops were grown.
(§7) After 5 to 88 days after application of the spray solution, the degree of damage to the unwanted vegetation is rated in % of plants of unwanted vegetation that were killed. Tests were performed on test fields (field trials).

Stellaria media = experiment: as above; details: 20 g of active compound/ha
Experimental: as §5, §6, §7

[1] = 3 d, pelargonic acid 10880 g/ha, flazasulfuron 25 g/ha, 16 L/ha
[2] = 3 d, pelargonic acid 10880 g/ha, flazasulfuron 50 g/ha, 16 L/ha
[3] = 3 d, pelargonic acid 21760 g/ha, flazasulfuron 25 g/ha, 32 L/ha
[4] = 3 d, pelargonic acid 21760 g/ha, flazasulfuron 50 g/ha, 32 L/ha
[5] = 7 d, pelargonic acid 10880 g/ha, flazasulfuron 25 g/ha, 16 L/ha
[6] = 7 d, pelargonic acid 10880 g/ha, flazasulfuron 50 g/ha, 16 L/ha
[7] = 7 d, pelargonic acid 21760 g/ha, flazasulfuron 25 g/ha, 32 L/ha
[8] = 7 d, pelargonic acid 21760 g/ha, flazasulfuron 50 g/ha, 32 L/ha
[9] = 13 d, pelargonic acid 10880 g/ha, flazasulfuron 25 g/ha, 16 L/ha
[10] = 13 d, pelargonic acid 10880 g/ha, flazasulfuron 50 g/ha, 16 L/ha
[11] = 13 d, pelargonic acid 21760 g/ha, flazasulfuron 25 g/ha, 32 L/ha
[12] = 13 d, pelargonic acid 21760 g/ha, flazasulfuron 50 g/ha, 32 L/ha
[13] = 23 d, pelargonic acid 10880 g/ha, flazasulfuron 25 g/ha, 16 L/ha
[14] = 23 d, pelargonic acid 21760 g/ha, flazasulfuron 25 g/ha, 32 L/ha
[15] = 23 d, pelargonic acid 21760 g/ha, flazasulfuron 50 g/ha, 32 L/ha
[16] = 30 d, pelargonic acid 10880 g/ha, flazasulfuron 25 g/ha, 16 L/ha
[17] = 30 d, pelargonic acid 10880 g/ha, flazasulfuron 50 g/ha, 16 L/ha
[18] = 30 d, pelargonic acid 21760 g/ha, flazasulfuron 25 g/ha, 32 L/ha
[19] = 30 d, pelargonic acid 21760 g/ha, flazasulfuron 50 g/ha, 32 L/ha
[20] = 38 d, pelargonic acid 10880 g/ha, flazasulfuron 25 g/ha, 16 L/ha
[21] = 38 d, pelargonic acid 10880 g/ha, flazasulfuron 50 g/ha, 16 L/ha
[22] = 38 d, pelargonic acid 21760 g/ha, flazasulfuron 25 g/ha, 32 L/ha
[23] = 38 d, pelargonic acid 21760 g/ha, flazasulfuron 50 g/ha, 32 L/ha
[24] = 23 d, pelargonic acid 10880 g/ha, flazasulfuron 50 g/ha, 16 L/ha

For `COc1cc(OC)nc(NC(=O)NS(=O)(=O)c2ncccc2C(F)(F)F)n1` [Flazasulfuron, 1-(4,6-dimethoxypyrimidin-2-yl)-3-(3-trifluoromethyl-2-pyridylsulfonyl)urea], the herbicidal effect (Chenopodium album; [1]) was 10%, the herbicidal effect (Chenopodium album; [2]) was 15% and the herbicidal effect (Chenopodium album; [3]) was 10%. For the same molecule, the herbicidal effect (Chenopodium album; [4]) was 15%, the herbicidal effect (Chenopodium album; [5]) was 40% and the herbicidal effect (Chenopodium album; [6]) was 0%. The herbicidal effect (Chenopodium album; [7]) was 40%, the herbicidal effect (Chenopodium album; [8]) was 0% and the herbicidal effect (Chenopodium album; [9]) was 15%. The herbicidal effect (Chenopodium album; [10]) was 0%, the herbicidal effect (Chenopodium album; [11]) was 15% and the herbicidal effect (Chenopodium album; [12]) was 0%. It also gave a herbicidal effect (Chenopodium album; [13]) of 20%, a herbicidal effect (Chenopodium album; [14]) of 20% and a herbicidal effect (Chenopodium album; [15]) of 0%. The herbicidal effect (Chenopodium album; [16]) was 20%, the herbicidal effect (Chenopodium album; [17]) was 0% and the herbicidal effect (Chenopodium album; [18]) was 20%. For the same molecule, the herbicidal effect (Chenopodium album; [19]) was 0%, the herbicidal effect (Chenopodium album; [20]) was 20% and the herbicidal effect (Chenopodium album; [21]) was 0%. It also gave a herbicidal effect (Chenopodium album; [22]) of 20%, a herbicidal effect (Chenopodium album; [23]) of 0% and a herbicidal effect (Lolium sp.) of 2.5%. For the same molecule, the herbicidal effect (Digitaria sang; 3 d) was 2.5%, the herbicidal effect (Digitaria sang; 7 d) was 13.3% and the herbicidal effect (Digitaria sang; 12 d) was 37.3%. It also gave a herbicidal effect (Digitaria sang; 72 d) of 3.8%, a herbicidal effect (Veronica persica; 3 d) of 2.5% and a herbicidal effect (Veronica persica; 7 d) of 7.5%. The herbicidal effect (Veronica persica; 56 d) was 16.3%, the herbicidal effect (Sonchus oleraceus L.; 3 d) was 0% and the herbicidal effect (Sonchus oleraceus L.; 7 d) was 0%. The herbicidal effect (Sonchus oleraceus L.; 13 d) was 2.5%, the herbicidal effect (Sonchus oleraceus L.; 28 d) was 12.5% and the herbicidal effect (Sonchus oleraceus L.; 58 d) was 10%. The herbicidal effect (Echinochloa crusgalli; 3 d, pelargonic acid 5440 g/ha, flazasulfuron 50 g/ha, 8 L/ha) was 2.5%, the herbicidal effect (Echinochloa crusgalli; [1]) was 0% and the herbicidal effect (Echinochloa crusgalli; [3]) was 0%. It also gave a herbicidal effect (Echinochloa crusgalli; 7 d, pelargonic acid 5440 g/ha, flazasulfuron 50 g/ha, 8 L/ha) of 13.3%, a herbicidal effect (Echinochloa crusgalli; [5]) of 40% and a herbicidal effect (Echinochloa crusgalli; [6]) of 20%. The herbicidal effect (Echinochloa crusgalli; [8]) was 20%, the herbicidal effect (Echinochloa crusgalli; 12 d, pelargonic acid 5440 g/ha, flazasulfuron 50 g/ha, 8 L/ha) was 37.3% and the herbicidal effect (Echinochloa crusgalli; [9]) was 40%. For the same molecule, the herbicidal effect (Echinochloa crusgalli; [10]) was 30%, the herbicidal effect (Echinochloa crusgalli; [11]) was 40% and the herbicidal effect (Echinochloa crusgalli; [12]) was 30%. The herbicidal effect (Echinochloa crusgalli; [13]) was 40%, the herbicidal effect (Echinochloa crusgalli; [24]) was 0% and the herbicidal effect (Echinochloa crusgalli; [14]) was 40%. It also gave a herbicidal effect (Echinochloa crusgalli; [15]) of 0%, a herbicidal effect (Echinochloa crusgalli; 26 d, pelargonic acid 5440 g/ha, flazasulfuron 50 g/ha, 8 L/ha) of 99% and a herbicidal effect (Echinochloa crusgalli; [16]) of 90%. For the same molecule, the herbicidal effect (Echinochloa crusgalli; [18]) was 90%, the herbicidal effect (Echinochloa crusgalli; [20]) was 90% and the herbicidal effect (Echinochloa crusgalli; [22]) was 90%. It also gave a herbicidal effect (Echinochloa crusgalli; 72 d, pelargonic acid 5440 g/ha, flazasulfuron 50 g/ha, 8 L/ha) of 96.3%, a herbicidal effect (Festuca ovina; [1]) of 0% and a herbicidal effect (Festuca ovina; [3]) of 0%. For the same molecule, the herbicidal effect (Festuca ovina; [5]) was 30%, the herbicidal effect (Festuca ovina; [6]) was 20% and the herbicidal effect (Festuca ovina; [7]) was 30%. For the same molecule, the herbicidal effect (Festuca ovina; [8]) was 20%, the herbicidal effect (Festuca ovina; [9]) was 30% and the herbicidal effect (Festuca ovina; [10]) was 20%. The herbicidal effect (Festuca ovina; [11]) was 30%, the herbicidal effect (Festuca ovina; [12]) was 20% and the herbicidal effect (Festuca ovina; [13]) was 75%. For the same molecule, the herbicidal effect (Festuca ovina; [24]) was 0%, the herbicidal effect (Festuca ovina; [14]) was 75% and the herbicidal effect (Festuca ovina; [15]) was 0%. The herbicidal effect (Festuca ovina; [16]) was 75%, the herbicidal effect (Festuca ovina; [18]) was 75% and the herbicidal effect (Festuca ovina; [20]) was 80%. It also gave a herbicidal effect (Festuca ovina; [22]) of 80%, a herbicidal effect (Anagallis arvensis) of 1.3% and a herbicidal effect (Plantago major; [1]) of 0%. It also gave a herbicidal effect (Plantago major; [2]) of 10%, a herbicidal effect (Plantago major; [4]) of 10% and a herbicidal effect (Plantago major; [5]) of 25%. It also gave a herbicidal effect (Plantago major; [6]) of 0%, a herbicidal effect (Plantago major; [7]) of 25% and a herbicidal effect (Plantago major; [8]) of 0%. The herbicidal effect (Plantago major; [9]) was 10%, the herbicidal effect (Plantago major; [10]) was 20% and the herbicidal effect (Plantago major; [11]) was 10%. The herbicidal effect (Plantago major; [12]) was 20%, the herbicidal effect (Plantago major; [14]) was 10% and the herbicidal effect (Plantago major; [15]) was 0%. It also gave a herbicidal effect (Plantago major; [16]) of 35%, a herbicidal effect (Plantago major; [17]) of 0% and a herbicidal effect (Plantago major; [18]) of 35%. For the same molecule, the herbicidal effect (Plantago major; [19]) was 0%, the herbicidal effect (Plantago major; [20]) was 10% and the herbicidal effect (Plantago major; [21]) was 10%. It also gave a herbicidal effect (Plantago major; [22]) of 10%, a herbicidal effect (Plantago major; [23]) of 10% and a herbicidal effect (Convolvulus arvensis L.) of 0%. For the same molecule, the “herbicidal effect (%)” value (Sonchus oleracea; Sonchus oleracea/6 d) was 18%, the “herbicidal effect (%)” value (Sonchus oleracea; Sonchus oleracea/16 d) was 28% and the “herbicidal effect (%)” value (Sonchus oleracea; Sonchus oleracea/30 d) was 43%. For the same molecule, the “herbicidal effect (%)” value (Sonchus oleracea; Sonchus oleracea/57 d) was 23%, the “herbicidal effect (%)” value (Sonchus oleracea; Sonchus oleracea/78 d) was 45% and the “herbicidal effect (%)” value (Stellaria media; Stellaria media/5 d) was 0%. For the same molecule, the “herbicidal effect (%)” value (Stellaria media; Stellaria media/18 d) was 79%.
